Data on four compounds can be found in US20100056524A1, “Compound” (priority 2008, published 2010).

Holding throughout (format): biochemical
One experiment has as its target T1, JNK2 (Homo sapiens, UniProt P45984).
T1 construct: All protein kinases were of human origin and encoded full length proteins, unless indicated otherwise; made in house
The experiment is described as follows: JNK2 protein kinase assay. The conditions noted are these: for remaining activity at 10 µM: 10 μM compound; for residual kinase activity JNK2: 1 μm compound; for remaining activity at 1 µM: 1 μM compound. The text has this:
(§1) All protein kinases were of human origin and encoded full length proteins, unless indicated otherwise. They were either expressed as glutathione S-transferase (GST) fusion proteins in Escherichia Coli or as hexahistidine (His6)-tagged proteins in insect Sf21 cells. GST fusion proteins were purified by affinity chromatography on glutathione-Sepharose, and His6-tagged proteins on nickel/nitriloacetate-agarose. The procedures for expressing some of the protein kinases used herein have been detailed previously.^8,9 The following sections outline the DNA vectors synthesised and the procedures used to express and purifying protein kinases that have not been reported previously.
In order to produce activated forms of Aurora B and Aurora C, insect Sf21 cells were incubated for 1 h with the protein phosphatase inhibitor okadaic acid (50 nM). JNK isoforms were activated with MKK4 and MKK7, MNK2 with p38α MAPkinase; PKBα, PKBβ, with PDK1, and ERK1 with MKK1. To activate CDK2, bacterial pellets expressing cyclin A2 and CDK2 were mixed together, lyse and purified on glutathione Sepharose. The GST-tags were removed by cleavage with PreScission protease and the CDK2-cyclin A2 complex purified by chromatography on SP-Sepharose. It was then activated with CAK1/CDK7 followed by chromatography on nickel-nitrilotriacetate agarose to remove CAK1/CDK7, which binds to this column by virtue of its C-terminal His6 tag. All the other protein kinases were active as expressed.
(§2) All assays (25.5 μl) were carried out at room temperature (21° C.) and were linear with respect to time and enzyme concentration under the conditions used. Assays were performed for 30 min using Multidrop Micro reagent dispensers (Thermo Electron Corporation, Waltham, Mass. 02454, USA) in a 96-well format. The concentration of magnesium acetate in the assays was 10 mM and the [γ-33P] ATP (800 cpm/pmol) was used at 5, 20 or 50 μM as indicated, in order to be at or below the Km for ATP for each enzyme. Protein kinases assayed at 5 μM ATP were: —ERK1, ERK8, PKBα, MARK3, Aurora C. Protein kinases assayed at 20 μM ATP were: —JNK1, PDK1, CHK1, CHK2, CDK2 and Aurora B. Protein kinases assayed at 50 μM ATP were: —MNK2, IKKepsilon and TBK1.
(§3) The assays were initiated with MgATP, stopped by addition of 5 μl of 0.5 M orthophosphoric acid and spotted on to P81 filterplates using a unifilter harvester (PerkinElmer, Boston, Mass. 02118, USA). The IC50 values of inhibitors were determined after carrying out assays at 10 different concentrations of each compound.
(§4) Unless stated otherwise, enzymes were diluted in 50 mM Tris/HCl pH 7.5, 0.1 mM EGTA, 1 mg/ml BSA, 0.1% (v/v) 2-mercaptoethanol and assayed in 50 mM Tris/HCl pH 7.5, 0.1 mM EGTA, 0.1% (v/v) 2-mercaptoethanol.

The next experiment deals with T2, CHK1 (Homo sapiens, UniProt O14757).
T2 construct: All protein kinases were of human origin and encoded full length proteins, unless indicated otherwise; made in house
T2 sequence (O14757 1-476): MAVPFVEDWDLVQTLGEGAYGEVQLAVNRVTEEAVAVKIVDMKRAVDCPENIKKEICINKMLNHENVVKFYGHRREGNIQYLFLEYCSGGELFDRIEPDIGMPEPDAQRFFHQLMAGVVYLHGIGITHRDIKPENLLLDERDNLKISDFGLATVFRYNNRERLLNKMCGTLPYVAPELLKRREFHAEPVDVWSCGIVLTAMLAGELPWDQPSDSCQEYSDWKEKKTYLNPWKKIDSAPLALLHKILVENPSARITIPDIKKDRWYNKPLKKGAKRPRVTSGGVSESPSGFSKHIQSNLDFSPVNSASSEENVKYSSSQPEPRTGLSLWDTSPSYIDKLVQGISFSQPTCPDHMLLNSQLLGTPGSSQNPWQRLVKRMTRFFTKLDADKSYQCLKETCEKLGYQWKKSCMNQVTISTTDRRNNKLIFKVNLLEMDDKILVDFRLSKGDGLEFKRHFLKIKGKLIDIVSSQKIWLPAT
The experiment is described as follows: CHK1 protein kinase assay. The conditions noted are these: for remaining activity at 10 µM: 10 μM compound; for residual kinase activity CHK1: 1 μm compound; for remaining activity at 1 µM: 1 μM compound.
Source text: as §1, §2, §3, §4

A further experiment has as its target T3, CHK2 (Homo sapiens, UniProt O96017).
T3 construct: The following proteins were expressed in E. coli: —CHK2[5-543]; GST; made in house; host or cells: E. coli
The experiment is described as follows: CHK2 protein kinase assay. The settings on record: for remaining activity at 10 µM: 10 μM compound; for residual kinase activity CHK2: 1 μm compound; for remaining activity at 1 µM: 1 μM compound.
Source text: as §1
The following proteins were expressed in E. coli: —CHK2[5-543], cyclin-dependent protein kinase 2 (CDK2), MAP kinase-interacting kinase 2 (MNK2), extra-cellular signal-regulated kinase 1 (ERK1).
as §2, §3, §4

In another experiment the target is T4, PLK1 (Homo sapiens, UniProt P53350).
T4 construct: All protein kinases were of human origin and encoded full length proteins, unless indicated otherwise; made in house
The experiment is described as follows: PLK1 protein kinase assay. The settings on record: for remaining activity at 10 µM: 10 μM compound; for residual kinase activity PLK1: 1 μm compound; for remaining activity at 1 µM: 1 μM compound.
Source text: as §1, §2, §3, §4

The target of another experiment is T5, MELK (Homo sapiens, UniProt Q14680).
T5 construct: All protein kinases were of human origin and encoded full length proteins, unless indicated otherwise; made in house
The experiment is described as follows: MELK protein kinase assay. The conditions noted are these: for remaining activity at 10 µM: 10 μM compound; for residual kinase activity MELK: 1 μm compound; for remaining activity at 1 µM: 1 μM compound.
Source text: as §1, §2, §3, §4

A further experiment deals with T6, DYRK1A (Homo sapiens, UniProt Q13627).
T6 construct: All protein kinases were of human origin and encoded full length proteins, unless indicated otherwise; made in house
The experiment is described as follows: DYRK1A protein kinase assay. The conditions noted are these: for remaining activity at 10 µM: 10 μM compound; for residual kinase activity DYRK1A: 1 μm compound; for remaining activity at 1 µM: 1 μM compound.
Source text: as §1, §2, §3, §4

In a further experiment the target is T7, PIM1 (Homo sapiens, UniProt P11309).
T7 construct: All protein kinases were of human origin and encoded full length proteins, unless indicated otherwise; made in house
The experiment is described as follows: PIM1 protein kinase assay. The settings on record: for remaining activity at 10 µM: 10 μM compound; for residual kinase activity PIM1: 1 μm compound; for remaining activity at 1 µM: 1 μM compound.
Source text: as §1, §2, §3, §4

In the next experiment the target is T8, MST4 (Homo sapiens, UniProt Q9P289).
T8 construct: All protein kinases were of human origin and encoded full length proteins, unless indicated otherwise; made in house
The experiment is described as follows: MST4 protein kinase assay. The settings on record: for remaining activity at 10 µM: 10 μM compound; for residual kinase activity MST4: 1 μm compound; for remaining activity at 1 µM: 1 μM compound.
Source text: as §1, §2, §3, §4

[1] abbreviates: read-out: residual kinase activity JNK2.
Where [2] appears, read: read-out: residual kinase activity CHK1.
Setting [3] is: read-out: residual kinase activity CHK2.
The mark [4] stands for this setting: read-out: residual kinase activity PLK1.
Where [5] appears, read: read-out: residual kinase activity MELK.
[6] abbreviates: read-out: residual kinase activity DYRK1A.
The mark [7] stands for this setting: read-out: residual kinase activity PIM1.
Setting [8] is: read-out: residual kinase activity MST4.
Setting [9] is: JNK2, read-out: residual kinase activity.
[10] abbreviates: CHK1, 20 μM ATP, read-out: residual kinase activity.
Setting [11] is: CHK2, 20 μM ATP, read-out: residual kinase activity.
Setting [12] is: PLK1, read-out: residual kinase activity.
Where [13] appears, read: MELK, read-out: residual kinase activity.
[14] abbreviates: DYRK1A, read-out: residual kinase activity.
[15] abbreviates: PIM1, read-out: residual kinase activity.
Setting [16] is: MST4, read-out: residual kinase activity.

Structures can show the parent of a compound that is named as a salt. Where two headings read alike, the source gives them in different places.

T5 sequence (Q14680 whole entry): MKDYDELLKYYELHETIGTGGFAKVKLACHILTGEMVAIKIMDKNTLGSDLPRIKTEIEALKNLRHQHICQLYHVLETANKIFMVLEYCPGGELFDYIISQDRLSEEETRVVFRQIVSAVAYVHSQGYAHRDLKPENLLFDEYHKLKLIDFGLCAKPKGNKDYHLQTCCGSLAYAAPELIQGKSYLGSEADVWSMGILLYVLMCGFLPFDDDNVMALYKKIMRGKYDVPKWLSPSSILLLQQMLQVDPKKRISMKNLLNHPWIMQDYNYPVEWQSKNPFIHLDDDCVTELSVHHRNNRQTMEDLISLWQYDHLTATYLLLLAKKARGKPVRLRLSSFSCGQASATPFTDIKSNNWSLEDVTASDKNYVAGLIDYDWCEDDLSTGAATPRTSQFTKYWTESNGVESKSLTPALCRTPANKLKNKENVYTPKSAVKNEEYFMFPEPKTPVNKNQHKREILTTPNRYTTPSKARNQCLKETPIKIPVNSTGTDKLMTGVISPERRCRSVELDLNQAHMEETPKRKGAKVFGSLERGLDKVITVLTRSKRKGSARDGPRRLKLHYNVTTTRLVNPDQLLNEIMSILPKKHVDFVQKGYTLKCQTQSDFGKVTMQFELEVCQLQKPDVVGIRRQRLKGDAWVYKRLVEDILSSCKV
T1 sequence (P45984 whole entry): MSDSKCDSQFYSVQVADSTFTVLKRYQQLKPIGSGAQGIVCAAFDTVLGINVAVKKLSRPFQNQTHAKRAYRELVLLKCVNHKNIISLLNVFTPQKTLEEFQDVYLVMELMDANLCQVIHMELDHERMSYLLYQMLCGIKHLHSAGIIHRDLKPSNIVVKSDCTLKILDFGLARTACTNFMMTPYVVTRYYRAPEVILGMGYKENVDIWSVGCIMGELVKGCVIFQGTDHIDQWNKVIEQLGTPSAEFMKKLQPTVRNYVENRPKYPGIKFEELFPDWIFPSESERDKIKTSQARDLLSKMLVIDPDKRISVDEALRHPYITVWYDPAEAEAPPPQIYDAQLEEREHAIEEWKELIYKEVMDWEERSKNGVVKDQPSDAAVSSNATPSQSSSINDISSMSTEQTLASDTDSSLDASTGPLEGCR
T3 sequence (O96017 5-543): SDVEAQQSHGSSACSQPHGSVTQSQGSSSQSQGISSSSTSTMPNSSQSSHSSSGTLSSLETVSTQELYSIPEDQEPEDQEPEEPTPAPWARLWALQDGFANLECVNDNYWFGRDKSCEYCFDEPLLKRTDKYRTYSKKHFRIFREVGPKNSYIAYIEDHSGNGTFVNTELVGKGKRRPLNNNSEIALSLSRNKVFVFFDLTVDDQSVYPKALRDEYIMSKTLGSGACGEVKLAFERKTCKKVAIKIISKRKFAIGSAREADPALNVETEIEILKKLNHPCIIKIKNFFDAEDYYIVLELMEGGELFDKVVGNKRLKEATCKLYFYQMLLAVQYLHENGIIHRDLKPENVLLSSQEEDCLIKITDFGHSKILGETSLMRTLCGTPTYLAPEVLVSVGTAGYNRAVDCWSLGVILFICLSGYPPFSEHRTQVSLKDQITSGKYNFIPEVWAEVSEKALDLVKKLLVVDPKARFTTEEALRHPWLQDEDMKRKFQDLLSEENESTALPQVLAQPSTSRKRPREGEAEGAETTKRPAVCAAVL
T4 sequence (P53350 whole entry): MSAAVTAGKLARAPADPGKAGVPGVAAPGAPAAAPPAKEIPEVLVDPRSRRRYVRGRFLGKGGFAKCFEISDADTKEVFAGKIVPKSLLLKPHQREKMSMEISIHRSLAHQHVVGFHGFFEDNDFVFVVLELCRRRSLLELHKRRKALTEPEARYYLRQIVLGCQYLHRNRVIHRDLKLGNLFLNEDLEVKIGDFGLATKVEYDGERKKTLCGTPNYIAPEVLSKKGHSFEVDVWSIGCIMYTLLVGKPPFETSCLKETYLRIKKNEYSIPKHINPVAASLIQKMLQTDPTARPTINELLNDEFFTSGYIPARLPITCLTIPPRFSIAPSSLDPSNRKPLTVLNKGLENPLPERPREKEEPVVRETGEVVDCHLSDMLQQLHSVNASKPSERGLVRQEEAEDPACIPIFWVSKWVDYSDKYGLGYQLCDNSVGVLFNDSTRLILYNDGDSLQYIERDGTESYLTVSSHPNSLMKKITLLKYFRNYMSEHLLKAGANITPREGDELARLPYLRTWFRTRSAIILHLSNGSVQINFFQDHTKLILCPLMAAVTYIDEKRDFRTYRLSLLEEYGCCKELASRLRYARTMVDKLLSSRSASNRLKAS
T7 sequence (P11309 whole entry): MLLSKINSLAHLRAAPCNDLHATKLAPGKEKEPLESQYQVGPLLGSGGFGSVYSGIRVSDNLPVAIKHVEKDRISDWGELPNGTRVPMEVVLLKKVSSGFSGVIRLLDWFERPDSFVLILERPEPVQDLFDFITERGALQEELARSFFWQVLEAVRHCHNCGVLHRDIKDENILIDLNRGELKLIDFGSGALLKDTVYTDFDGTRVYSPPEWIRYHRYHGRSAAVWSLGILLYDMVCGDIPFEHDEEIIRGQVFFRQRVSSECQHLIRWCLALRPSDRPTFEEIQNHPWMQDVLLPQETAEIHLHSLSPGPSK
T8 sequence (Q9P289 whole entry): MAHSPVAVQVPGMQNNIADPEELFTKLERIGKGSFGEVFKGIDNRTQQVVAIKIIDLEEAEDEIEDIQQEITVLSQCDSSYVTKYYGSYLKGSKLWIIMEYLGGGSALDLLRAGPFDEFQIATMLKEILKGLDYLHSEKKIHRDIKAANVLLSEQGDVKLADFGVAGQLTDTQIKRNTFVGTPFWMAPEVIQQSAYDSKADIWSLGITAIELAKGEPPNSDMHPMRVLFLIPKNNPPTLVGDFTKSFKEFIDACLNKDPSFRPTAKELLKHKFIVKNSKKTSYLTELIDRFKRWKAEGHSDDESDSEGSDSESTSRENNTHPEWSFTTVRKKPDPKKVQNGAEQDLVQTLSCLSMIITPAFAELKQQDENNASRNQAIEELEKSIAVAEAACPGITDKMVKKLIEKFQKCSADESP

For the compound `O=C(NCCCNc1nc(Nc2cccc(F)c2)ncc1Br)C1CCC1` [Compound A, cyclobutanecarboxylic acid {3-[5-bromo-2-(3-fluoro-phenylamino)-pyrimidin-4-ylamino]-propyl}-amide, reference compound], the remaining activity at 10 µM at JNK2 (setting [1]) came to 5%; on CHK1 (setting [2]), 0%; on CHK2 (setting [3]), 12%; on PLK1 (setting [4]) it was 45%; on MELK (setting [5]) it was 14%; at DYRK1A (setting [6]), 38%. For the same compound, the remaining activity at 10 µM on PIM1 (setting [7]) came out at 50%; at MST4 (setting [8]), 47%. Also, the “residual kinase activity JNK2” value on JNK2 turned out to be 40%. At CHK1, the “residual kinase activity CHK1” value is reported as 9%. On CHK2, the “residual kinase activity CHK2” value amounted to 13%. Besides, at PLK1, the “residual kinase activity PLK1” value worked out at 82%. Further, the “residual kinase activity MELK” value on MELK came to 15%. The “residual kinase activity DYRK1A” value at DYRK1A is listed as 74%. Besides, at PIM1, the “residual kinase activity PIM1” value is 52%. Besides, the “residual kinase activity MST4” value on MST4 was found to be 90%.
For `O=C(NCCCNc1nc(Nc2cccc(F)c2)ncc1C1CC1)C1CCC1` [Example 23, Cyclobutanecarboxylic acid {3-[5-cyclopropyl-2-(3-fluoro-phenylamino)-pyrimidin-4-ylamino]-propyl}-amide], the remaining activity at 10 µM on JNK2 (setting [1]) was found to be 55%; at JNK2 (setting [9]), 55%; on CHK1 (setting [2]), 14%; at CHK1 (setting [10]) it was 14%; at CHK2 (setting [3]), 11%; at CHK2 (setting [11]), 11%. Besides, the remaining activity at 10 µM was determined as 62% at PLK1 (setting [4]); 62% at PLK1 (setting [12]); 3% on MELK (setting [5]); 3% at MELK (setting [13]); 56% at DYRK1A (setting [6]); 56% at DYRK1A (setting [14]). The remaining activity at 10 µM stood at 46% at PIM1 (setting [7]), 46% on PIM1 (setting [15]), 56% on MST4 (setting [8]) and 56% at MST4 (setting [16]). Moreover, the “residual kinase activity JNK2” value at JNK2 turned out to be 78%. Besides, the remaining activity at 1 µM at JNK2 (setting [9]) came out at 78%; at CHK1 (setting [10]), 51%; at CHK2 (setting [11]), 50%; at PLK1 (setting [12]) it was 90%; on MELK (setting [13]), 23%; at DYRK1A (setting [14]) it was 78%. Besides, the remaining activity at 1 µM on PIM1 (setting [15]) worked out at 78%; on MST4 (setting [16]), 94%. For the same compound, the “residual kinase activity CHK1” value at CHK1 is given as 51%. The “residual kinase activity CHK2” value at CHK2 was found to be 50%. Besides, on PLK1, the “residual kinase activity PLK1” value was determined as 90%. For the same compound, at MELK, the “residual kinase activity MELK” value stood at 23%. Also, at DYRK1A, the “residual kinase activity DYRK1A” value came to 78%. Further, on PIM1, the “residual kinase activity PIM1” value stood at 78%. The “residual kinase activity MST4” value on MST4 is 94%.
Consider `O=C(NCCCNc1nc(Nc2cccc(N3CCCC3=O)c2)ncc1C1CC1)c1cccs1` [Example 47, Thiophene-2-carboxylic acid (3-{5-cyclopropyl-2-[3-(2-oxo-pyrrolidin-1-yl)-phenylamino]-pyrimidin-4-ylamino}-propyl)-amide. Hydrochloride salt], for which the remaining activity at 1 µM on JNK2 (setting [9]) was found to be 98%; at CHK1 (setting [10]), 70%; on CHK2 (setting [11]), 71%; on PLK1 (setting [12]), 88%; on MELK (setting [13]), 14%; on DYRK1A (setting [14]), 84%. Moreover, the results for the remaining activity at 1 µM at PIM1 (setting [15]) and on MST4 (setting [16]) were 82% and 124%, respectively. For the same compound, the remaining activity at 10 µM at JNK2 (setting [9]) came to 89%; at CHK1 (setting [10]), 30%; at CHK2 (setting [11]), 28%; on PLK1 (setting [12]), 75%; at MELK (setting [13]) it was 27%; on DYRK1A (setting [14]), 78%. Further, the remaining activity at 10 µM on PIM1 (setting [15]) was determined as 57%; on MST4 (setting [16]), 111%.
With `O=C(NCCCNc1nc(Nc2cccnc2)ncc1C1CC1)c1cccs1` [Example 50, Thiophene-2-carboxylic acid {3-[5-cyclopropyl-2-(pyridin-3-ylamino)-pyrimidin-4-ylamino]-propyl}-amide], the remaining activity at 1 µM on JNK2 (setting [9]) worked out at 102%; on CHK1 (setting [10]), 65%; at CHK2 (setting [11]), 52%; on PLK1 (setting [12]), 101%; at MELK (setting [13]), 29%; at DYRK1A (setting [14]), 88%. The remaining activity at 1 µM on PIM1 (setting [15]) stood at 63%; on MST4 (setting [16]), 164%. In addition, the remaining activity at 10 µM on JNK2 (setting [9]) came to 66%; at CHK1 (setting [10]), 21%; at CHK2 (setting [11]), 16%; on PLK1 (setting [12]), 66%; at MELK (setting [13]), 17%; on DYRK1A (setting [14]) it was 57%. Also, the remaining activity at 10 µM at PIM1 (setting [15]) was 92%; on MST4 (setting [16]) it was 120%.
